Laboratory results: patent publication US11479533B2, “Inhibitors of Rho associated coiled-coil containing protein kinase” (KADMON CORPORATION, LLC, priority 2017, dated 2022)

Tested on: bleomycin induced lung fibrosis
Assay: Bleomycin induced lung fibrosis in mice (therapeutic administration)
Assay type: in vivo, mouse
Conditions: oral once daily Day 7 to Day 20
Description: Bleomycin induced lung fibrosis in mice (therapeutic administration): Male C57B/L6 mice were housed for acclimation for no less than 7 days. After acclimation period, animals were randomly assigned to treatment groups. On day 0, mice were anesthetized with 5% isoflurane by inhalation for 10-15 mins and then suspended by their front teeth on a wire attached to a fixed animal operating plate. 50 μL of saline or bleomycin solution was administered via intratracheal instillation. Mice in treatment groups were intratracheally instilled with bleomycin hydrochloride (BLM) 2.0 U/kg (mg/kg) in sterile saline. On day 7 following bleomycin administration, half of the animals in vehicle group were sacrificed to establish a baseline for the level of fibrosis at the treatment initiation. Mice in normal control group received saline by p.o. once daily from Day 7 to Day 20. Treatment group mice received the compound dosed orally once daily from Day 7 to Day 20. On Day 20, 2-3 hours posted the last dose, all mice were sacrificed. Lungs were gently lavaged via the tracheal cannula with 0.8 mL of PBS containing 1% BSA and 0.6 mM EDTA. […] The activity of ROCK inhibitors in attenuating pulmonary fibrosis in a therapeutic dosing setting was assessed in a bleomycin-induced model, following intratracheal bleomycin installation to induce lung tissue damage and consequent fibrosis of the lung. […]

Question: How did the “collagen amounts in the lungs (Masson's trichrome)” value turn out when `CNC(C(=O)Nc1ccc(-c2cn[nH]c2)cc1)c1cccc(OC)c1` (stereo not shown) [Example 2, N-(4-(1H-pyrazol-4-yl)phenyl)-2-(3-methoxyphenyl)-2-(methylamino)acetamide] was run?
Answer: The value was “significantly lower”.
